Structures can show the parent of a compound that is named as a salt.
Point of comparison: N#CCCCC(=O)N[C@H]1CC[C@H](CCN2CCN(c3ccccc3Cl)CC2)CC1 [Example 233, N-(4-{2-[4-(2-Chlorophenyl)piperazin-1-yl]ethyl}cyclohexyl)-4-cyanobutanamide], melting point 142 °C. Against it:
- CCOCC(=O)N[C@H]1CC[C@H](CCN2CCN(c3cccc(Cl)c3C)CC2)CC1 [Example 137, N-(4-{2-[4-(3-Chloro-2-methylphenyl)piperazin-1-yl]ethyl}cyclohexyl)-2-ethoxyacetamide] — higher, 143 °C
- CC(=O)CN1CCC(CCN2CCN(c3cccc(Cl)c3Cl)CC2)CC1 (as salt: hydrochloride) [Example 737, 1-(4-{2-[4-(2,3-Dichlorophenyl)piperazin-1-yl]ethyl}piperidin-1-yl)propan-2-one, dihydrochloride] — higher, 281 °C
- N#CCCCC(=O)N[C@H]1CC[C@@H](CCN2CCN(c3cccc(C(F)(F)F)c3F)CC2)CC1 [Example 366, 4-Cyano-N-(4-{2-[4-(2-fluoro-3-trifluoromethylphenyl)piperazin-1-yl]ethyl}cyclohexyl)butanamide] — lower, 95 °C
- N#CCC(=O)N[C@H]1CC[C@H](CCN2CCN(c3ccc(Cl)c(Cl)c3Cl)CC2)CC1 [Example 729, 2-Cyano-N-(4-{2-[4-(2,3,4-trichlorophenyl)piperazin-1-yl]ethyl}cyclohexyl)acetamide] — higher, 217 °C
- Cl.N#CCCCC(=O)N1CCC(CCN2CCN(c3cccc4c3CCC4)CC2)CC1 — higher, 210 °C
- CCc1cccc(N2CCN(CC[C@H]3CC[C@H](NC(=O)C4CC=CC4)CC3)CC2)c1 [Example 378, Cyclopent-3-enecarboxylic acid (4-{2-[4-(3-ethylphenyl)piperazin-1-yl]ethyl}cyclohexyl) amide] — higher, 185 °C
- CC(=O)CN1CCC(CCN2CCN(c3cccc4cccnc34)CC2)CC1.Cl.Cl — higher, 270 °C
- CC(F)(F)c1cccc(N2CCN(CC[C@H]3CC[C@H](NC(=O)CCCC#N)CC3)CC2)c1 [Example 314, 4-Cyano-N-[4-(2-{4-[3-(1,1-difluoroethyl)phenyl]piperazin-1-yl}ethyl)cyclohexyl]butanamide] — higher, 179 °C
- CSc1ccccc1N1CCN(CC[C@H]2CC[C@H](NC(=O)CCCC#N)CC2)CC1 [Example 236, 4-Cyano-N-(4-{2-[4-(2-methylsulfanylphenyl)piperazin-1-yl]ethyl}cyclohexyl)butanamide] — lower, 130 °C
- CC(=O)CN1CCC(CCN2CCN(c3cccc(C(O)C(C)C)c3)CC2)CC1 (centres unmarked) [Example 608, 1-[4-(2-{4-[3-(1-Hydroxy-2-methylpropyl)phenyl]piperazin-1-yl}ethyl)piperidin-1-yl]propan-2-one] — lower, 78 °C
- CCOc1ccccc1N1CCN(CC[C@H]2CC[C@H](NC(=O)CCCC#N)CC2)CC1 [Example 439, 4-Cyano-N-(4-{2-[4-(2-ethoxyphenyl)piperazin-1-yl]ethyl}cyclohexyl)butanamide] — lower, 137 °C
- N#CCC(=O)N[C@H]1CC[C@H](CCN2CCN(c3ccc4c(c3)CCCC4)CC2)CC1 [Example 211, 2-Cyano-N-(4-{2-[4-(5,6,7,8-tetrahydronaphthalen-2-yl)piperazin-1-yl]ethyl}cyclohexyl)acetamide] — higher, 200 °C
- N#CCC(=O)N[C@H]1CC[C@H](CCN2CCN(c3cc(F)ccc3F)CC2)CC1 [Example 226, 2-Cyano-N-(4-{2-[4-(2,5-difluorophenyl)piperazin-1-yl]ethyl}cyclohexyl)acetamide] — higher, 198 °C
- CC(=O)CN1CCC(CCN2CCN(c3ccccc3C(F)(F)F)CC2)CC1.Cl.Cl — higher, 290 °C
- N#CCCCC(=O)N[C@H]1CC[C@H](CCN2CCN(c3cccc(Cl)c3)CC2)CC1 [Example 229, N-(4-{2-[4-(3-Chlorophenyl)-piperazin-1-yl]ethyl}cyclohexyl)-4-cyanobutanamide] — higher, 171 to 173 °C
- COCC(=O)N[C@H]1CC[C@H](CCN2CCN(c3cccc(C(F)(F)F)c3C#N)CC2)CC1 [Example 119, N-(4-{2-[4-(2-Cyano-3-trifluoromethylphenyl)piperazin-1-yl]ethyl}cyclohexyl)-2-methoxyacetamide] — higher, 172 °C
- Cc1cccc(C2=CCN(CC[C@H]3CC[C@H](NC(=O)C4=CCCC4)CC3)CC2)c1C#N — higher, 183 °C
- Cc1ccc(F)cc1N1CCN(CC[C@H]2CC[C@H](NC(=O)CCC#N)CC2)CC1 [Example 278, 3-Cyano-N-(4-{2-[4-(5-fluoro-2-methylphenyl)piperazin-1-yl]ethyl}cyclohexyl)propanamide] — higher, 146 °C
- COCC(=O)N[C@H]1CC[C@H](CCN2CCN(c3ccccc3Cl)CC2)CC1 [Example 129, N-(4-{2-[4-(2-Chlorophenyl)-piperazin-1-yl]ethyl}cyclohexyl)-2-methoxyacetamide] — lower, 100 °C
- N#CCCCC(=O)N[C@H]1CC[C@H](CCN2CCN(c3cc(F)c(F)cc3F)CC2)CC1 [Example 473, 4-Cyano-N-(4-{2-[4-(2,4,5-trifluorophenyl)piperazin-1-yl]ethyl}cyclohexyl)butanamide] — higher, 153 °C
- N#CCC(=O)N[C@H]1CC[C@H](CCN2CCN(c3cccc(CO)c3)CC2)CC1 [Example 268, 2-Cyano-N-(4-{2-[4-(3-hydroxymethylphenyl)piperazin-1-yl]ethyl}cyclohexyl)acetamide] — higher, 180 °C
- COc1cccc(N2CCN(CC[C@H]3CC[C@H](NC(=O)C4=CCCC4)CC3)CC2)c1 [Example 417, Cyclopent-1-enecarboxylic acid (4-{2-[4-(3-methoxyphenyl)-piperazin-1-yl]ethyl}cyclohexyl) amide] — higher, 160 °C
- Cc1ccc(Cl)c(N2CCN(CC[C@H]3CC[C@H](NC(=O)CC#N)CC3)CC2)c1 [Example 227, N-(4-{2-[4-(2-Chloro-5-methylphenyl)piperazin-1-yl]ethyl}cyclohexyl)-2-cyanoacetamide] — higher, 174 °C
- Cc1c(N2CCN(CC[C@H]3CC[C@H](NC(=O)CC#N)CC3)CC2)cccc1C(F)(F)F [Example 178, 2-Cyano-N-(4-{2-[4-(2-methyl-3-trifluoromethylphenyl)piperazin-1-yl]ethyl}cyclohexyl)acetamide] — higher, 181 °C
- CC(=O)CCCC(=O)N[C@H]1CC[C@H](CCN2CCN(c3cccc(C(F)(F)F)c3)CC2)CC1 [Example 202, 5-Oxo-hexanoic acid (4-{2-[4-(3-trifluoromethylphenyl)piperazin-1-yl]ethyl}cyclohexyl)amide] — higher, 158 °C
- COc1ccc(C)c(N2CCN(CC[C@H]3CC[C@H](NC(=O)CC#N)CC3)CC2)c1 [Example 198, 2-Cyano-N-(4-{2-[4-(5-methoxy-2-methylphenyl)piperazin-1-yl]ethyl}cyclohexyl)acetamide] — higher, 178 to 180 °C
- COc1cccc(N2CCN(CCC3CCN(CC(C)=O)CC3)CC2)c1.Cl.Cl — higher, 265 °C
- CCOCC(=O)N[C@H]1CC[C@H](CCN2CCN(c3cccc(C(F)(F)F)c3C#N)CC2)CC1 [Example 102, N-(4-{2-[4-(2-Cyano-3-trifluoromethylphenyl)piperazin-1-yl]ethyl}cyclohexyl)-2-ethoxyacetamide] — higher, 173 °C
- CC(=O)CN1CCC(CCN2CCN(c3ccc(Cl)cc3)CC2)CC1.Cl.Cl — higher, 277 °C
- N#CCC(=O)N[C@H]1CC[C@H](CCN2CCN(c3ccccc3Cl)CC2)CC1 [Example 131, N-(4-{2-[4-(2-Chlorophenyl)-piperazin-1-yl]ethyl}cyclohexyl)-2-cyanoacetamide] — higher, 194 °C
- CC(=O)CN1CCC(CCN2CCN(c3cccc(F)c3)CC2)CC1.Cl.Cl — higher, 268 °C
- CCc1ccccc1N1CCN(CC[C@H]2CC[C@H](NC(=O)CCCC#N)CC2)CC1 [Example 286, 4-Cyano-N-(4-{2-[4-(2-ethylphenyl)piperazin-1-yl]ethyl}cyclohexyl)butanamide] — lower, 124 °C
- CC(=O)CN1CCC(CCN2CCN(c3ccc(C)cc3F)CC2)CC1 [Example 482, 1-(4-{2-[4-(2-Fluoro-4-methylphenyl)piperazin-1-yl]ethyl}piperidin-1-yl)propan-2-one] — lower, 65 °C
- CC(C)Oc1cccc(N2CCN(CC[C@H]3CC[C@H](NC(=O)CC#N)CC3)CC2)c1.Cl — higher, 191 °C
- O=C(CC(F)(F)F)N[C@H]1CC[C@H](CCN2CCN(c3ccc(F)cc3F)CC2)CC1 [Example 386, N-(4-{2-[4-(2,4-Difluorophenyl)piperazin-1-yl]ethyl}cyclohexyl)-3,3,3-trifluoropropanamide] — higher, 184 °C
- Cl.Cl.O=C(CN1CCC(CCN2CCN(c3cccc(C(F)(F)F)c3)CC2)CC1)c1ccc(F)cc1 — higher, 265 °C
- Cc1ccc(Cl)cc1N1CCN(CC[C@H]2CC[C@H](NC(=O)CC#N)CC2)CC1 [Example 155, N-(4-{2-[4-(5-Chloro-2-methylphenyl)piperazin-1-yl]ethyl}cyclohexyl)-2-cyanoacetamide] — higher, 171 to 172 °C
- N#CCCCC(=O)N[C@H]1CC[C@H](CCN2CCN(c3cc(Cl)c(Cl)cc3Cl)CC2)CC1 [Example 764, 4-Cyano-N-(4-{2-[4-(2,4,5-trichlorophenyl)piperazin-1-yl]ethyl}cyclohexyl)butanamide] — higher, 179 °C
- CC(=O)CN1CCC(CCN2CC=C(c3ccc(F)cc3)CC2)CC1 — lower, 72 °C
- Cc1ccc(N2CCN(CC[C@H]3CC[C@H](NC(=O)CC#N)CC3)CC2)cc1F [Example 339, 2-Cyano-N-(4-{2-[4-(3-fluoro-4-methylphenyl)piperazin-1-yl]ethyl}cyclohexyl)acetamide] — higher, 208 °C
- COCC(=O)N[C@H]1CC[C@H](CCN2CCN(c3cc(C(C)(C)C)nc(C(C)(C)C)n3)CC2)CC1 [Example 122, N-(4-{2-[4-(2,6-Di-tert-butylpyrimidin-4-yl)piperazin-1-yl]ethyl}cyclohexyl)-2-methoxyacetamide] — lower, 130 °C
- CC(=O)CN1CCC(CCN2CCC(c3cccc4c3CCC4)CC2)CC1.Cl.Cl — higher, 339 °C
- N#CCC(=O)N[C@H]1CC[C@H](CCN2CCN(c3cc(Cl)ccc3F)CC2)CC1 [Example 171, N-(4-{2-[4-(5-Chloro-2-fluorophenyl)piperazin-1-yl]ethyl}cyclohexyl)-2-cyanoacetamide] — higher, 200 °C
